Bounds are passed on as bounds.

Assay [1] addresses T1, μ-opioid receptor (Homo sapiens, UniProt P35372). Briefly: μ-opioid receptor [35S]GTPγS functional assay, U-2 OS cells. The assay is classed as biochemical. Details: host or cells: U-2 OS cells. The note with it: for Emax: U2-OS cells, relative to DAMGO. The essentials:
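U-2 OS membranes expressing recombinant human μ-receptor (0.026 mg/mL) were incubated with compound, […], saponin and [35S]GTPγS 0.20 nM in HEPES/NaCl/MgCl2 buffer pH 7.4 for 30 min at about 25° C. Filter-bound radioactivity gave sigmoidal fits for EC50; Emax is relative to DAMGO.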
A general note: GTPγS is a poorly hydrolysed GTP analogue; its binding reports G protein activation.

Assay [2] has as its target T2, human κ opioid receptor (Homo sapiens, UniProt P41145). The assay is described as follows: κ-opioid receptor [35S]GTPγS functional assay, U-2 OS cells. The assay is classed as biochemical. Details: expressed in transfected cells; host or cells: U-2 OS cells (in-house membranes). The note with it: for Emax: U2-OS cells, relative to U69,593. The method, boiled down:
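Membranes from U-2 OS cells expressing human κ receptor (0.026 μg/μl protein) were incubated with agonist, 10 μg/mL saponin, 3 μM GDP and 0.20 nM [35S]GTPγS in pH 7.4 HEPES buffer for 30 min at about 25 °C. Bound radioactivity was measured after filtration. EC50 was taken at half-maximal response; Emax is relative to U69,593.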

Assay [3] addresses T1, μ-opioid receptor. Briefly: μ-opioid receptor [35S]GTPγS functional assay, HEK-293 or CHO cells. The note with it: for Emax: HEK-293 or CHO cells, relative to DAMGO. It is filed as biochemical. As for the experimental part:
[^35S]GTPγS functional assays were conducted using freshly thawed μ-receptor membranes prepared in-house from a cell line expressing recombinant opioid receptor in a HEK-293, CHO or U-2 OS cell background, or purchased from a commercial source (Perkin Elmer, Shelton, Conn.; or DiscovRx, Fremont, Calif.). Assay reactions were prepared by sequentially adding the following reagents to binding buffer (100 mM NaCl, 10 mM MgCl2, 20 mM HEPES, pH 7.4) on ice (final concentrations indicated): membrane protein (0.026 mg/mL), saponin ([…]), GDP ([…]) and [^35S]GTPγS (0.20 nM; Perkin Elmer, Shelton, Conn.). The prepared membrane solution (190 l/well) was transferred to 96-shallow well polypropylene plates containing 10 μl of 20× concentrated stock solutions of the agonist [D-Ala^2, N-methyl-Phe^4 Gly-ol^5]-enkephalin (DAMGO) prepared in dimethyl sulfoxide (DMSO). Plates were incubated for 30 min at about 25° C. with shaking. Reactions were terminated by rapid filtration onto 96-well Unifilter GF/B filter plates (Perkin Elmer, Shelton, Conn.) using a 96-well tissue harvester (Perkin Elmer, Shelton, Conn.) followed by three filtration washes with 200 μl of ice-cold wash buffer (10 mM NaH2PO4, 10 mM Na2HPO4, pH 7.4). Filter plates were subsequently dried at 50° C. for 2-3 hr. BetaScint scintillation cocktail (Perkin Elmer, Shelton, Conn.) was added (50 μl/well) and plates were counted using a Packard Top-Count for 1 min/well. Data were analyzed using the sigmoidal dose-response curve fitting functions in GraphPad PRISM v. 3.0, or an in-house function for non-linear, sigmoidal dose-response curve-fitting.
μ GTP EC50 is the concentration of a compound providing 50% of the maximal response for the compound at a μ-opioid receptor.
μ GTP Emax (%) is the maximal effect elicited by a compound relative to the effect elicited by DAMGO, a standard agonist. Generally, the μ GTP Emax (%) value measures the efficacy of a compound to treat or prevent pain or other Conditions.
In TABLE 2, activity response of certain Compounds of the Invention at the μ- and κ-opioid receptors using HEK-293 or CHO cells was determined as described above for functional assays.

In assay [4] the target is T2, human κ opioid receptor. The assay is described as follows: κ-opioid receptor radioligand ([3H]-U69,593) dose-displacement binding assay, HEK-293 or CHO cells. Set-up: expressed in transfected cells; host or cells: HEK-293 cells (in-house prep). The procedure: Membranes from recombinant HEK-293 cells expressing the human K opioid receptor (cloned in house) were prepared by lysing cells in ice cold hypotonic buffer (2.5 mM MgCl2, 50 mM HEPES, pH 7.4) (10 mL/10 cm dish) followed by homogenization with a tissue grinder/Teflon pestle. Membranes were collected by centrifugation at 30,000×g for 15 min at 4° C. and pellets were resuspended in hypotonic buffer to a final concentration of 1-3 mg/mL. Protein concentrations were determined using the BioRad protein assay reagent with bovine serum albumen as standard. Aliquots of κ receptor membranes were stored at −80° C.
Radioligand dose displacement assays used 0.4 nM [^3H]-U69,593 (GE Healthcare, Piscataway, N.J.; 40 Ci/mmole) with 15 μg membrane protein (recombinant K opioid receptor expressed in HEK 293 cells; in-house prep) in a final volume of 200 μl binding buffer (5% DMSO, 50 mM Trizma base, pH 7.4). Non-specific binding was determined in the presence of 10 μM unlabeled naloxone or U69,593. All reactions were performed in 96-well polypropylene plates for 1 hr at a temperature of about 25° C. Binding reactions were terminated by rapid filtration onto 96-well Unifilter GF/C filter plates (Perkin Elmer, Shelton, Conn.) presoaked in 0.5% polyethylenimine (Sigma). Harvesting was performed using a 96-well tissue harvester (Perkin Elmer, Shelton, Conn.) followed by five filtration washes with 200 μl ice-cold binding buffer. Filter plates were subsequently dried at 50° C. for 1-2 hours. Fifty μl/well scintillation cocktail (Perkin Elmer, Shelton, Conn.) was added and plates were counted in a Packard Top-Count for 1 min/well.
(§1) In TABLE 1, binding affinity of certain Compounds of the Invention to the μ-, and κ-opioid receptors in HEK-293 or CHO cells was determined as described above.

The target in assay [5] is T1, μ-opioid receptor. Briefly: μ-opioid receptor radioligand ([3H]-diprenorphine) dose-displacement binding assay, HEK-293 or CHO cells. The procedure:
Radioligand dose-displacement binding assays for μ-opioid receptors used 0.3 nM [^3H]-diprenorphine (Perkin Elmer, Shelton, Conn.), with […] membrane protein/well in a final volume of 500 μl binding buffer (10 mM MgCl2, 1 mM EDTA, 5% DMSO, 50 mM HEPES, pH 7.4). Reactions were carried out in the absence or presence of increasing concentrations of unlabeled naloxone. All reactions were conducted in 96-deep well polypropylene plates for 2 hr at room temperature. Binding reactions were terminated by rapid filtration onto 96-well Unifilter GF/C filter plates (Perkin Elmer, Shelton, Conn.), presoaked in 0.5% polyethylenimine using a 96-well tissue harvester (Perkin Elmer, Shelton, Conn.) followed by performing three filtration washes with 500 μl of ice-cold binding buffer. Filter plates were subsequently dried at 50° C. for 2-3 hours. BetaScint scintillation cocktail (Perkin Elmer, Shelton, Conn.) was added (50 l/well), and plates were counted using a Packard Top-Count for 1 min/well. The data were analyzed using the one-site competition curve fitting functions in GraphPad PRISM™ v. 3.0 or higher (San Diego, Calif.), or an in-house function for one-site competition curve-fitting.
as §1

T1 sequence (P35372 whole entry, species assumed): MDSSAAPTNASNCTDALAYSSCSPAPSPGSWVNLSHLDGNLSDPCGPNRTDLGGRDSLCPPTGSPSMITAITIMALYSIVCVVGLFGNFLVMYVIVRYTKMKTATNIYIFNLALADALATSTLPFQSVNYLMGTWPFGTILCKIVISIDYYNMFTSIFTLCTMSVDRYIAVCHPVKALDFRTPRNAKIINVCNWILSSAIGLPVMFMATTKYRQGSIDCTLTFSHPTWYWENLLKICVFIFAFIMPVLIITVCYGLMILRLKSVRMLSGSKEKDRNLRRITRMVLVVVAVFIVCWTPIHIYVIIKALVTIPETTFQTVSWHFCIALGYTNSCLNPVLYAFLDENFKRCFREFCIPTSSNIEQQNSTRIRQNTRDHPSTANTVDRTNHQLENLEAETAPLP
T2 sequence (P41145 whole entry): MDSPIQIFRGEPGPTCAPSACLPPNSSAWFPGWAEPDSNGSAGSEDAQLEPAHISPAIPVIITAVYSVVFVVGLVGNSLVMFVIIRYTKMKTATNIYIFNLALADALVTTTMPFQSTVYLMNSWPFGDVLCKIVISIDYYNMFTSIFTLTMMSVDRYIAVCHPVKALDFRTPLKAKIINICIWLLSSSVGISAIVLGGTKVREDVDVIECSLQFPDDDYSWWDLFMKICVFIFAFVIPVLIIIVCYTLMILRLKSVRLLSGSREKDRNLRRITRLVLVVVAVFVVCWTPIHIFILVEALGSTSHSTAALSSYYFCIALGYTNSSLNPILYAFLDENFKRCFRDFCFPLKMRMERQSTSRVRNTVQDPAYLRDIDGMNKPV

Consider `CC(C)CCCC(=O)N[C@H]1C[C@@]2(O)[C@H]3Cc4ccc(O)cc4[C@@]2(CCN3CC2CC2)C[C@H]1O` [Compound 62, N-((4bR,6R,7S,8aS,9R)-11-(cyclopropylmethyl)-3,6,8a-trihydroxy-6,7,8,8a,9,10-hexahydro-5H-9,4b-(epiminoethano)phenanthren-7-yl)-5-methylhexanamide], for which the EC50 – broadly, the midpoint of the concentration-response curve – was 43.3 ± 5.6 nM in assay [1], 17.4 ± 1.46 nM in assay [2] and 54.7 ± 4.52 nM in assay [3]. Further, the Emax (as a rule, the size of the effect at its maximum, as opposed to the concentration needed) in assay [1] is 60.3 ± 0.88%; in assay [2] it was 90.2 ± 1.65%; in assay [3], 23.3 ± 0.67%.
`CC(C)C(=O)N[C@H]1CC[C@]23CCN(CC4CC4)[C@H](Cc4ccc(O)cc42)[C@]3(O)C1` [Compound 46, N-((4bS,7S,8aS,9R)-11-(cyclopropylmethyl)-3,8a-dihydroxy-6,7,8,8a,9,10-hexahydro-5H-9,4b-(epiminoethano)phenanthren-7-yl)isobutyramide]: the figures for the EC50 in assay [1], in assay [2] and in assay [3] were 0.38 ± 0.11 nM, 0.1 ± 0.021 nM and over 20000 nM, respectively. Moreover, the Emax came to 54 ± 6.03% in assay [1], 102 ± 5.24% in assay [2] and 7.67 ± 3.48% in assay [3].
Regarding `CC(C)CN[C@H]1CC[C@]23CCN(CC4CC4)[C@H](Cc4ccc(O)cc42)[C@]3(O)C1` [Compound 42, (4bS,7S,8aS,9R)-11-(cyclopropylmethyl)-7-(isobutylamino)-5,6,7,8,9,10-hexahydro-8aH-9,4b-(epiminoethano)phenanthrene-3,8a-diol], the EC50 in assay [1] was 2.81 ± 0.16 nM; in assay [2], 0.25 ± 0.029 nM; in assay [3], 20.2 ± 7.83 nM. In addition, the Emax in assay [1] amounted to 67.3 ± 2.85%; in assay [2] it was 110%; in assay [3], 16.6 ± 1.63%.
The compound `N=C(N)NCCC(=O)N[C@@H]1CC[C@@]2(O)[C@H]3Cc4ccc(O)cc4[C@@]2(CCN3CC2CC2)C1` [Compound 21, N-((4bR,6R,8aS,9R)-11-(cyclopropylmethyl)-3,8a-dihydroxy-6,7,8,8a,9,10-hexahydro-5H-9,4b-(epiminoethano)phenanthren-6-yl)-3-guanidinopropanamide] returned an EC50 in assay [2] of 120 ± 2.94 nM. For the same compound, in assay [2], the maximal effect (Emax) is 105.3 ± 0.88%. In addition, the Ki (in general, the equilibrium dissociation constant of an inhibitor or competing ligand from its target) in assay [4] is 4.61 ± 1.05 nM; in assay [5], 1010 ± 221 nM.
Turning to `COc1ccc2c(c1)[C@@]13CC[C@H](NC(=O)C(C)C)C[C@@]1(O)[C@@H](C2)N(CC1CC1)CC3` [Compound 45, N-((4bS,7S,8aS,9R)-11-(cyclopropylmethyl)-8a-hydroxy-3-methoxy-6,7,8,8a,9,10-hexahydro-5H-9,4b-(epiminoethano)phenanthren-7-yl)isobutyramide], the figures for the EC50 in assay [1], in assay [2] and in assay [3] were 72 ± 15.9 nM, 10.6 ± 2.1 nM and 308 ± 122 nM, respectively. Also, the values for the Emax in assay [1], in assay [2] and in assay [3] were 71 ± 5.69%, 106 ± 1% and 15.3 ± 1.86%, respectively.
`COc1ccc2c(c1)[C@]13CCN(CC4CC4)[C@H](C2)[C@]12C[C@H](OCc1ccccc1)[C@H](C3)O2` [Compound 102, (4bR,6S,7S,8aS,9R)-7-(benzyloxy)-11-(cyclopropylmethyl)-3-methoxy-5,6,7,8,9,10-hexahydro-9,4b-(epiminoethano)-6,8a-epoxyphenanthrene]: the EC50 in assay [1] was 470 ± 69.9 nM; in assay [2], 1920 nM; in assay [3] it was 1520 ± 465 nM. Moreover, the Emax in assay [1] is 42 ± 1.73%; in assay [2], 58.3 ± 0.67%; in assay [3], 10.5 ± 1.26%.
In assay [3], `Oc1ccc2c(c1)[C@]13CCN(CC4CC4)[C@H](C2)[C@]1(O)C[C@H](Cc1ccccc1)[C@H](O)C3` [Compound 103, (4bR,6R,7S,8aS,9R)-7-benzyl-11-(cyclopropylmethyl)-5,6,7,8,9,10-hexahydro-8aH-9,4b-(epiminoethano)phenanthrene-3,6,8a-triol] had an EC50 of over 20000 nM and an Emax of 1%.
In assay [3], `CC(C)CC[C@H]1C[C@@]2(O)[C@H]3Cc4ccc(O)cc4[C@@]2(CCN3C)C[C@H]1O` [Compound 109, (4bR,6R,7S,8aS,9R)-7-isopentyl-11-methyl-5,6,7,8,9,10-hexahydro-8aH-9,4b-(epiminoethano)phenanthrene-3,6,8a-triol] returned an EC50 of 1870 ± 203 nM and an Emax of 41.1 ± 3.25%.
Consider `COc1ccc2c(c1)[C@]13CCN(C)[C@H](C2)[C@H]1[C@H](O)C[C@H](OCCO)C3` [Compound 118, (4bS,6R,8R,8aS,9R)-6-(2-hydroxyethoxy)-3-methoxy-11-methyl-6,7,8,8a,9,10-hexahydro-5H-9,4b-(epiminoethano)phenanthren-8-ol], for which, in assay [3], the EC50 was over 20000 nM and the Emax worked out at 31.8 ± 5.76%.
`O=C1C=C2[C@H]3Cc4ccc(O)cc4[C@]2(CC1)CCN3CC1CC1` [Compound 68, (4bS,9R)-11-(cyclopropylmethyl)-3-hydroxy-5,6,9,10-tetrahydro-7H-9,4b-(epiminoethano)phenanthren-7-one]: the 50% effective concentration (EC50) was 4.54 ± 1.28 nM in assay [1], 1.67 ± 0.099 nM in assay [2] and over 20000 nM in assay [3]. In addition, the Emax in assay [1] was 31.3 ± 1.33%; in assay [2], 104 ± 2.31%; in assay [3], 6 ± 3%.
With `NCCCN[C@@H]1CC[C@@]2(O)[C@H]3Cc4ccc(O)cc4[C@@]2(CCN3CC2CC2)C1` [Compound 13, (4bR,6R,8aS,9R)-6-((3-aminopropyl)amino)-11-(cyclopropylmethyl)-5,6,7,8,9,10-hexahydro-8aH-9,4b-(epiminoethano)phenanthrene-3,8a-diol], the figures for the EC50 in assay [1] and in assay [2] were 38.9 ± 4.9 nM and 2.13 ± 0.41 nM, respectively. The Emax was determined as 66.3 ± 5.78% in assay [1] and 117 ± 1.86% in assay [2]. The Ki worked out at 0.51 ± 0.073 nM in assay [4] and 80 ± 27.1 nM in assay [5].

(Values after patent US20200148646A1, “6-S[…] 7-S[…] ANALOGS AND THE USE THEREOF” (Purdue Pharma, L.P., priority 2013, published 2020).)
